Measurements as given in PMC9554508, “ARumenamides: A novel class of potential antiarrhythmic compounds” (Frontiers in Pharmacology, 2022).

Molecular target: T1, Nav1.5 (wild type; α-subunit co-transfected with the β1 subunit) (Homo sapiens, UniProt Q14524)
T1 construct: gene SCN5A; full-length alpha subunit transiently co-transfected with beta1 subunit and eGFP (separate cDNAs) in HEK293; with Sodium channel regulatory subunit beta-1
Test: whole-cell patch clamp, peak INa block at -20 mV, Hill fit
Format: cell-based
Description: whole-cell patch clamp, peak INa block at -20 mV, Hill fit on Nav1.5 (wild type; α-subunit co-transfected with the β1 subunit)

T1 sequence (Q14524 whole entry): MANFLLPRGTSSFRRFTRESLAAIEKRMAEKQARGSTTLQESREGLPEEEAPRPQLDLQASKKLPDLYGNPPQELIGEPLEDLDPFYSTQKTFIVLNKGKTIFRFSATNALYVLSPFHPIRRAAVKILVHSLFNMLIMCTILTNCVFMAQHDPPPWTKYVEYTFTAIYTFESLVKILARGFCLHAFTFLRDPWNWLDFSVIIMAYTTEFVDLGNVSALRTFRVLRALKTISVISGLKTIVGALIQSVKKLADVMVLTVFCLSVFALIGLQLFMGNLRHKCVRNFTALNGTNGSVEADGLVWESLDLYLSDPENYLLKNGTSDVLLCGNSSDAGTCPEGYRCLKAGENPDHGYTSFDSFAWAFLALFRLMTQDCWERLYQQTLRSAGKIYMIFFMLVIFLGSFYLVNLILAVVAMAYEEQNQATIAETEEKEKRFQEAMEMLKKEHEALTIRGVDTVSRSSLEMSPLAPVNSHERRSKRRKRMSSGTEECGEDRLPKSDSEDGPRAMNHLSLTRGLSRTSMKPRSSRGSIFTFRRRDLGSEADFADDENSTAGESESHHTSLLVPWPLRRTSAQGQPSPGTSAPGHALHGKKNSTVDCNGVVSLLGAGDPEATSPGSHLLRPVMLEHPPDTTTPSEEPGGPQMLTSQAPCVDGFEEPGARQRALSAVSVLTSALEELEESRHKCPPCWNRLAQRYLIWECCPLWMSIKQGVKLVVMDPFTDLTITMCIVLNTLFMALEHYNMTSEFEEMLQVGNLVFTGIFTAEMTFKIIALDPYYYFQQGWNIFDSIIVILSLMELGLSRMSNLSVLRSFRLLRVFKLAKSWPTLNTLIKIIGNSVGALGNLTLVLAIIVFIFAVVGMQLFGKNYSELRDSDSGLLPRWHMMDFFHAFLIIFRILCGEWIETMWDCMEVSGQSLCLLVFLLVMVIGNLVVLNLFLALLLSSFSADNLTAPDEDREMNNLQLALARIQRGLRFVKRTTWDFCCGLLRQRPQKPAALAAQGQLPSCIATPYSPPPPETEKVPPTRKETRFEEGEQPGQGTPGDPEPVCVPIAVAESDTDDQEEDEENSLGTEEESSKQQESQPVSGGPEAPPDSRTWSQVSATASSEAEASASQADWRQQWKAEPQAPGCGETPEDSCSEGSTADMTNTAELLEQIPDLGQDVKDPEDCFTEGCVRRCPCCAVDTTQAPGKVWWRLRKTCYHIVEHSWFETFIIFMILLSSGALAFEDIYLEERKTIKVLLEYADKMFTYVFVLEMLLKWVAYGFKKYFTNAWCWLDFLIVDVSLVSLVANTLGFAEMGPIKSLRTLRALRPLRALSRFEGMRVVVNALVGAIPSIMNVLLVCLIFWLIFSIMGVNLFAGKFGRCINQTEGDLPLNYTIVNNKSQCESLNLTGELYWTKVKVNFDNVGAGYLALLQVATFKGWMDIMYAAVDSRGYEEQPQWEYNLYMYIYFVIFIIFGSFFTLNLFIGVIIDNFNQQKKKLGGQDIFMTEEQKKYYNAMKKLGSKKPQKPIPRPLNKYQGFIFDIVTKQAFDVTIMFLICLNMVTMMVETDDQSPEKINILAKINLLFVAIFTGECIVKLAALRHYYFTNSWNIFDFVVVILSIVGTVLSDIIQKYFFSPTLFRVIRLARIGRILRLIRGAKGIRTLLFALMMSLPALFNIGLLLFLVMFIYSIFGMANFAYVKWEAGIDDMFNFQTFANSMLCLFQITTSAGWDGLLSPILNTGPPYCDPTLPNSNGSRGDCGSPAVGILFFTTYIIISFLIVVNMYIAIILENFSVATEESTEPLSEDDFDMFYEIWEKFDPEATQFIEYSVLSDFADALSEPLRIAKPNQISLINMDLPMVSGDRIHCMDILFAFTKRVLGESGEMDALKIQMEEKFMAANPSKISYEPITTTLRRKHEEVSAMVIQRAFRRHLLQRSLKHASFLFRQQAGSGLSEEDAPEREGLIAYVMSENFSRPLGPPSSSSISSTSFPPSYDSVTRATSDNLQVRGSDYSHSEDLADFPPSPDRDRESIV
T1 sequence (Q07699 19-218 partner): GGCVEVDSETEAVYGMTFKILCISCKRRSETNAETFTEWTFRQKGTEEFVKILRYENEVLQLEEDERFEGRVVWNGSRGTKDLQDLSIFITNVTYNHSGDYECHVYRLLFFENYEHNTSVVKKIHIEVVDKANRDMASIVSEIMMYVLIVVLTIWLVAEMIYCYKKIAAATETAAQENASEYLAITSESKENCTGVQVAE

Compound | IC50 [µM]
O=C(NCc1ccco1)c1ccc2[nH]c(=O)c(=O)[nH]c2c1 [AR-051, N-(2-furylmethyl)-2,3-dioxo-quinoxaline-6-carboxamide] | 7.61
CN(C)[C@@H](CNC(=O)c1ccc2[nH]c(=O)c(=O)[nH]c2c1)c1ccco1 [AR-189, N-[(2S)-2-(dimethylamino)-2-(2-furyl)ethyl]-2,3-dioxo-quinoxaline-6-carboxamide] | 12.6
C=CCNS(=O)(=O)c1ccc2[nH]c(=O)[nH]c2c1 [AR-674, N-allyl-2-oxo-benzimidazole-5-sulfonamide] | 6.45
COc1cccc(NS(=O)(=O)c2ccc3[nH]c(=O)[nH]c3c2)c1 [AR-802, N-(3-methoxyphenyl)-2-oxo-benzimidazole-5-sulfonamide] | 34.6
CCc1ccccc1NS(=O)(=O)c1ccc2[nH]c(=O)[nH]c2c1 [AR-807, N-(2-ethylphenyl)-2-oxo-benzimidazole-5-sulfonamide] | 9.86
